Source: US20050033021A1, “Chimeric Gatiphal 15 variants and their use in the analysis and discovery of modulators of G-protein coupled receptors” (priority 2003, published 2005)

Biological target: T1, rat T1 R1/T1 R3 umami taste receptor (Rattus norvegicus, UniProt Q923K1+Q9Z0R8)
T1 construct: expressed in transfected cells; host or cells: HEK-293, transient transfection, pEAK10 expression vector
T1 sequence (Q9Z0R8 20-840): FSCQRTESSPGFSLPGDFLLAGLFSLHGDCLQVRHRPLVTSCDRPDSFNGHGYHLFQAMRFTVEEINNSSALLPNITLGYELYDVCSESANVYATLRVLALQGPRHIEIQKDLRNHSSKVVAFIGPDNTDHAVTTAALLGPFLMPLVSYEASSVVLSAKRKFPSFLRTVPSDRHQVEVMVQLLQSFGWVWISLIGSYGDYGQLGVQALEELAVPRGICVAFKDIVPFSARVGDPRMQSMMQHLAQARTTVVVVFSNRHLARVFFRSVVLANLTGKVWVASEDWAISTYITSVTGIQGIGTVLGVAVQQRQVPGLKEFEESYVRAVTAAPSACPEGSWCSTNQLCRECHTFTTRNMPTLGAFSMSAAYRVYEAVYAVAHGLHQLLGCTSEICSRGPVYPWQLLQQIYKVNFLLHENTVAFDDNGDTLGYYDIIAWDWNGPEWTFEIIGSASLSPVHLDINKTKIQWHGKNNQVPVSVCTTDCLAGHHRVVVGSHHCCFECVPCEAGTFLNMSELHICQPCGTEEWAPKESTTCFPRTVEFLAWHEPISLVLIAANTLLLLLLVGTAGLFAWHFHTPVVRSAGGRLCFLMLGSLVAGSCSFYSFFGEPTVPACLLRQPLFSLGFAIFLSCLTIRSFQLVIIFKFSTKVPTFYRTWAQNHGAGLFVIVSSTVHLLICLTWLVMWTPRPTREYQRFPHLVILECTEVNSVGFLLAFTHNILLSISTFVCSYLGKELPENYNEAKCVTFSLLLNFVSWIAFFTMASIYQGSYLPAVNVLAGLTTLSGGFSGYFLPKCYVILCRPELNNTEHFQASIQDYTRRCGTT
T1 sequence (Q923K1 21-858): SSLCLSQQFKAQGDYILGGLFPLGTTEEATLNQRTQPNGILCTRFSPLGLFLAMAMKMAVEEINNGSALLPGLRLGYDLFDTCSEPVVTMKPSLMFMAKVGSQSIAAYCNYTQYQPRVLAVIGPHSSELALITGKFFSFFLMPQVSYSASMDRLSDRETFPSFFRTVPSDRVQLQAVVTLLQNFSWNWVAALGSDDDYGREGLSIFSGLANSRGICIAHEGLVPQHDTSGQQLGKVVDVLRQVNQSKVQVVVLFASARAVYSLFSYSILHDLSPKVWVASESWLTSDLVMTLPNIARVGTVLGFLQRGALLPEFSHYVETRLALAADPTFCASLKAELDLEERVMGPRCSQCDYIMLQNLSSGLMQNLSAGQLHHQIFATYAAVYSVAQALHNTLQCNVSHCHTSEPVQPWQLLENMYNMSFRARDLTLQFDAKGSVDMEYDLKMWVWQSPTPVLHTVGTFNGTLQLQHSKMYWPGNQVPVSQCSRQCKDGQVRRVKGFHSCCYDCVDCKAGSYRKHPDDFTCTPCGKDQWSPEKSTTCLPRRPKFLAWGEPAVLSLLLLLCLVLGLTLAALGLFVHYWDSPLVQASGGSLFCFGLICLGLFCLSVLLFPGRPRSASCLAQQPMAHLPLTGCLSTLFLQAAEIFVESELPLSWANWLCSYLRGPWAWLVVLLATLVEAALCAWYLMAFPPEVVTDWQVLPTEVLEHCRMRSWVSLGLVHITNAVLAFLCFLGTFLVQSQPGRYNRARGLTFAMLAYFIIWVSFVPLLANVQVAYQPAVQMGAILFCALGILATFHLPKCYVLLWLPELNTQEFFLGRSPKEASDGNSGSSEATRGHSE
Experiment: Calcium imaging of HEK-293 cells transiently transfected with rat T1R1, T1R3 and Ga15 or Ga15/i1
Format: cell-based
Details: HEK-293 with rat T1R1, T1R3 and Ga15/i1; in the presence of 2.5 mM IMP
Source text: Rat T1 R2 and T1 R3 expression constructs were generated using the pEAK10 expression vector (Edge Biosystems). (Rat T1 R1, T1 R2, and T1 R3 nucleic acid sequences are described in U.S. Provisional Application No. 60/339,472, incorporated by reference in its entirety herein). […] Calcium mobilization was monitored on an Axiovert S100 microscope equipped with an inverted 10X/0.5 LWID piano fluor objective (Zeiss) and a cooled CCID camera (Princeton Instruments). Fluorescence images were acquired at 480 nrn excitation and 535 nm emission, and analyzed with Imaging Workbench 4.0 software (Axon Instruments). T1 R receptor activity was quantitated by counting the number of responding cells 30 seconds after stimulus addition. […]

Compound	cell response (intracellular calcium) to umami taste stimuli
N[C@@H](CC(=O)O)C(=O)O [L-aspartate]	responded
N[C@@H](CCC(=O)O)C(=O)O [L-glutamate]	responded
